Converted amounts (≈) assume the structure as drawn.
Columns and labels:
[1] = Stability in aqueous solution and in Unisol 4 contact lens soak (iodometric/thiosulfate titration); type: physicochemical
Protocol: The stabilities of compound 1 in aqueous solution and in a contact lens soak formulation (Unisol 4 manufactured by Alcon Laboratories, Inc.) were determined at 22° C. by using the standard iodometric/thiosulfate titration procedure. In water buffered to pH 7.0 at 22° C., the compound at a starting concentration of 10 mg/L total chlorine lost less than 5% of its oxidative chlorine over a storage period of 50 days. In about 4 mL of Unisol 4 at a starting concentration of about 20 mg/L total chlorine in the presence of an ACUVUE 2 contact lens (manufactured by Johnson & Johnson Vision Care, Inc.) in a lens holder manufactured by Alcon Laboratories, Inc., the loss of oxidative chlorine over 60 days was about 21%. In contrast, in an analogous experiment with compound 2 in the Unisol 4, the loss was about 54% over just 30 days.

[2] = Solubility in water at 22° C.; type: physicochemical
Source text: Both of the N-chloramine compounds mentioned above are able to easily be synthesized using methods known to those of skill in the art. Aqueous solutions of the un-halogenated amine precursor for either compound may be simply exposed to a dilute aqueous solution of household bleach (e.g., sodium hypochlorite) or sodium chlorite or by bubbling in chlorine gas to form the N-chloramine. For example, compound 1 has been prepared by Worley, et al., by using chlorine gas to react with an aqueous alkaline solution of the precursor amine (see Tsao, et al., “Novel N-Halamine Disinfectant Compounds”, Biotechnol. Prog. 1991, 7, 60 or Worley, et al., U.S. Pat. No. 5,057,612). It can also be purchased commercially from the HaloSource Corporation in Bothell, Wash. The precursor 2,2,5,5-tetramethyl-4-imidazolidinone is able to be prepared according to the method outlined in Tsao, et al., “Novel N-Halamine Disinfectant Compounds”, Biotechnol. Prog. 1991, 7, 60 or Worley, et al., U.S. Pat. No. 5,057,612. Compound 2 is able to be prepared by reaction of commercial (Aldrich Chemical Company, Milwaukee, Wis.) 2,2,6,6-tetramethyl-4-piperidinol with dilute household bleach. […] Pure compounds 1 and 2 contain 20.1 and 18.5 percent by weight oxidative chlorine, respectively. Their solubilities in water at 22° C. are 1930 and 6815 mg/L, respectively. […]

[3] = tested on: Staphylococcus aureus (ATCC 25923); test: Disinfection efficacy in aqueous solution (colony counts after thiosulfate quench); type: cell-based; conditions: 5 mg/L total chlorine (25 mg/L compound)
Protocol: The antimicrobial efficacy of compound 1 was evaluated against the pathogen Staphylococcus aureus (ATCC 25923) in aqueous solution at 22° C. and pH values of 4.5, 7.0, and 9.5. Solutions containing about 1×10^6 colony forming units (CFU) per mL final cell densities of bacteria were prepared and treated with compound 1 at a concentration of 5 mg/L total chlorine concentration (25 mg/L compound concentration). Aliquots were removed at predetermined contact times and quenched with sterile 0.02 N sodium thiosulfate to terminate disinfection action. Then serial dilutions were made into sterile saline solution, and 25 μL aliquots of each dilution were applied to the dried surface of a Petri dish containing tryptic soy agar. After 48 hours of incubation at 37° C., colony counts for each dilution were made. The results of three replicates were averaged. Control samples containing no disinfectant were handled in the same manner. Inactivation of the pathogen was considered to be at least 99.9999% (6 logs) when no viable colonies were detected in the thiosulfate-quenched aliquots.

Structure (SMILES): CC1(C)CC(O)CC(C)(C)N1Cl [compound 2, 1-chloro-2,2,6,6-tetramethyl-4-piperidinol, reference compound]
- loss of oxidative chlorine ([1]; Unisol 4 with ACUVUE 2 contact lens, analogous experiment, 30 days): about 54%
- solubility [2]: 6820 µg/mL (≈ 35.5 mM)

Structure (SMILES): CC1(C)NC(=O)C(C)(C)N1Cl [compound 1, 1-chloro-2,2,5,5-tetramethyl-4-imidazolidinone]
- contact time required for 99.9999% inactivation ([3]; pH 4.5, 22° C.): 60 min
- inactivation after 10 minutes contact ([3]; pH 4.5, 22° C., about 1×10^6 CFU/mL): 96%
- contact time required for 99.9999% inactivation ([3]; pH 7.0, 22° C.): 588 min
- inactivation after 10 minutes contact time ([3]; pH 7.0, 22° C., about 1×10^6 CFU/mL): 4.4%
- contact time required for 99.9999% inactivation ([3]; pH 9.5, 22° C.): 454 min
- inactivation after 10 minutes contact time ([3]; pH 9.5, 22° C., about 1×10^6 CFU/mL): 50%
- loss of oxidative chlorine ([1]; about 4 mL Unisol 4 with ACUVUE 2 contact lens, starting about 20 mg/L total chlorine, 60 days): about 21%
- loss of oxidative chlorine ([1]; water buffered to pH 7.0, 22° C., starting 10 mg/L total chlorine, storage 50 days): less than 5%
- solubility [2]: 1930 µg/mL (≈ 10.9 mM)

— patent US8883077B2, “Disinfecting, nonbleaching N-halamine for use with contact lens” (Auburn University, priority 2010, dated 2014)
